{
  "source": "paper PMC7691559",
  "about": "(Journal of Pesticide Science, 2020)",
  "assay_in_all_cases": "spectrophotometric GST assay, nonlinear regression",
  "type_in_all_cases": "biochemical",
  "settings_in_all_cases": "read-out: CDNB / Km; 5 mM GSH, CDNB varied",
  "key": {"[1]": {"biological_target": "T1, bmGSTu2 (Bombyx mori, UniProt A9XI30)", "T1 sequence (A9XI30 1-233)": "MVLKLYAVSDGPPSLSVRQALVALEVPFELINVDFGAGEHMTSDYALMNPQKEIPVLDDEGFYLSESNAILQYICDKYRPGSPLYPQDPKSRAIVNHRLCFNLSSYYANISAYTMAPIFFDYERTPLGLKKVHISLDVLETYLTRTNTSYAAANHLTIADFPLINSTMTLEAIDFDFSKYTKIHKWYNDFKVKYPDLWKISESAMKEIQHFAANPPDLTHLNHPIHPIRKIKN"}, "[2]": {"biological_target": "T2, bmGSTu2 (Bombyx mori, UniProt A9XI30, P162A)", "T2 sequence (A9XI30 1-233 P162A)": "T1 sequence (A9XI30 1-233) with P162A"}, "[3]": {"biological_target": "T3, bmGSTu2 (Bombyx mori, UniProt A9XI30, N102A)", "T3 sequence (A9XI30 1-233 N102A)": "T1 sequence (A9XI30 1-233) with N102A"}, "[4]": {"biological_target": "T4, bmGSTu2 (Bombyx mori, UniProt A9XI30, S166A)", "T4 sequence (A9XI30 1-233 S166A)": "T1 sequence (A9XI30 1-233) with S166A"}},
  "note": "Numbering of substitutions follows the chain as printed.",
  "data": [
    {"compound": "O=[N+]([O-])c1ccc(Cl)c([N+](=O)[O-])c1", "note": "[CDNB, 1-chloro-2,4-dinitrobenzene]", "values": [
      {"measurement": "Km", "setting": "[1]", "result": 280, "unit": "µM"},
      {"measurement": "Km", "setting": "[2]", "result": 2.1, "unit": "mM"},
      {"measurement": "Km", "setting": "[3]", "result": 940, "unit": "µM"},
      {"measurement": "Km", "setting": "[4]", "result": 720, "unit": "µM"}
    ]}
  ]
}
